Results as given in PMC8605905 (Oxidative Medicine and Cellular Longevity, 2021).
Entries after “also recorded” stand apart in the source; their conditions may differ.

Assays:
Format in all cases: cell-based, Human
Aβ-GFP SH-SY5Y cells [1] = experiment: Western blot in Aβ-GFP SH-SY5Y cells; conditions: inhibitor 10 μM on day 6, LM-021 5 μM
Experimental: (§1) To monitor the cAMP-mediated signal transduction pathway, CRE-GFP 293 cells in 6-well plates (1 × 10^6/well) were pretreated with kinase inhibitor H-89 (LC Laboratories, Woburn, MA, USA), KN-62 (Cayman Chemical, Ann Arbor, MI, USA), U0126 (LC Laboratories), or wortmannin (LC Laboratories) (10 μM) for 4 h before forskolin or LM-021 (10 μM) addition for 5 h. GFP fluorescence/protein and total/phosphorylated PKA, CaMKII, ERK, PI3K, and CREB levels were examined. In addition, Aβ-GFP or ∆K280 tauRD-DsRed SH-SY5Y cells were treated with retinoic acid (10 μM) on day 1, followed by the addition of LM-021 (5 or 10 μM) and doxycycline (5 or 2 μg/ml) on day 2, as described. Kinase inhibitors (10 μM) were added on day 6. On day 8, the cells were collected for protein expression analysis of BDNF, BCL2 (BCL2 apoptosis regulator), and BAX (BCL2 associated X, apoptosis regulator), and total/phosphorylated PKA, CaMKII, ERK, PI3K, and CREB. Also, cells were stained with DAPI and assessed for neurite outgrowth as described above.
(§2) Total proteins from CRE-GFP 293 and Aβ-GFP, ∆K280 tauRD-DsRed SH-SY5Y cells were extracted using lysis buffer (50 mM Tris-HCl (pH 8.0), 150 mM NaCl, 1 mM EDTA (pH 8.0), 1 mM EGTA (pH 8.0), 0.1% SDS, 0.5% sodium deoxycholate, 1% Triton X-100) containing phosphatase and protease inhibitor cocktails (Sigma-Aldrich). Protein concentrations were measured using a protein assay kit (Bio-Rad, Hercules, CA, USA), and 20 μg of proteins was separated with 10% SDS-PAGE and blotted onto polyvinylidene difluoride (PVDF) membranes (Sigma-Aldrich). After blocking, the membrane blot was incubated with primary antibody against GFP (1 : 500; Santa Cruz Biotechnology, Santa Cruz, CA, USA), PKA (1 : 1000; R&D Systems, Minneapolis, MN, USA), p-PKA (T197) (1 : 1000; Cell Signaling, Danvers, MA, USA), ERK (1 : 500; Cell Signaling), p-ERK (T202/Y204) (1 : 500; Cell Signaling), CaMKII (1 : 1000; Santa Cruz Biotechnology), p-CaMKII (T286) (1 : 1000; Cell Signaling), CREB (1 : 1000; Santa Cruz Biotechnology), p-CREB (S133) (1 : 1000; Millipore, Billerica, MA, USA), BDNF (1 : 500; Santa Cruz Biotechnology), BCL2 (1 : 500; BioVision), BAX (1 : 500; BioVision), GAPDH (glyceraldehyde-3-phosphate dehydrogenase, as a loading control) (1 : 1000; MDBio, Taipei, Taiwan), or β-tubulin (1 : 1000, Sigma-Aldrich, as a loading control). The immune complexes were visualized using horseradish peroxidase-conjugated goat anti-mouse or goat anti-rabbit IgG antibody (1 : 5000, GeneTex, Irvine, CA, USA) and a chemiluminescent substrate (Millipore).

[2] = tested on: ∆K280 tauRD-DsRed SH-SY5Y cells; experiment: High content analysis of neurite outgrowth in ΔK280 tauRD-DsRed cells; conditions: inhibitor 10 μM on day 6, LM-021 10 μM
Experimental: (§3) On day 1, Aβ-GFP or ∆K280 tauRD-DsRed SH-SY5Y cells were plated into 24-well plates (6 × 10^4/well) followed by addition of retinoic acid. On day 2, cells were treated with coumarin-chalcone derivatives (5 or 10 μM) and with doxycycline (5 or 2 μg/ml) to induce the expression of Aβ-GFP or ∆K280 tauRD-DsRed. On day 8, 4% paraformaldehyde, 0.1% Triton X-100, and 3% BSA were used to fix, permeabilize, and block cells, respectively. Subsequently, the cells were stained with TUBB3 (neuronal class III β-tubulin) primary antibody (1 : 1000; Covance, Princeton, NJ, USA) at 4°C overnight. Goat anti-rabbit Alexa Fluor 555 secondary antibody (1 : 1000; Thermo Fisher Scientific) was then added, followed by a 3 h incubation at room temperature. Following staining nuclei with 4′,-6-diamidino-2-phenylindole (DAPI) (0.1 μg/ml; Sigma-Aldrich), the neurons were imaged by using the HCA system and analysed by using the Neurite Outgrowth Application Module (MetaXpress; Molecular Devices).
as §1

CRE-GFP 293 cells [3] = experiment: Western blot in CRE-GFP 293 cells; conditions: inhibitor 10 μM, LM-021 10 μM, without Ca2+ ionophore, immunoblot
Experimental: as §1
Total proteins from CRE-GFP 293 and Aβ-GFP, ∆K280 tauRD-DsRed SH-SY5Y cells were extracted using lysis buffer (50 mM Tris-HCl (pH 8.0), 150 mM NaCl, 1 mM EDTA (pH 8.0), 1 mM EGTA (pH 8.0), 0.1% SDS, 0.5% sodium deoxycholate, 1% Triton X-100) containing phosphatase and protease inhibitor cocktails (Sigma-Aldrich). Protein concentrations were measured using a protein assay kit (Bio-Rad, Hercules, CA, USA), and 20 μg of proteins was separated with 10% SDS-PAGE and blotted onto polyvinylidene difluoride (PVDF) membranes (Sigma-Aldrich). […]

CRE-GFP 293 cells [4] = experiment: CRE-GFP 293 reporter cell assay (flow cytometry); conditions: inhibitor 10 μM 4 h before LM-021 10 μM, presence or absence of Ca2+ ionophore
From the text: Using the pCRE-MetLuc2-Reporter plasmid (Clontech, Mountain View, CA, USA) as a template, the DNA fragment containing the cAMP response element (CRE) motifs and TATA-like promoter (PTAL) flanked by MluI and AgeI restriction sites was amplified by PCR using sense ([…], MluI site underlined) and antisense ([…], AgeI site underlined) primers. The amplified CRE-PTAL promoter fragment was cloned into pGEM-T Easy (Promega, Madison, WI, USA) and sequenced. The CRE-PTAL-containing MluI/AgeI fragment and GFP-containing AgeI/NotI fragment (from pEGFP-N1; Clontech) were subcloned into MluI- and NotI-digested pcDNA5/FRT/TO (Novagen, Madison, WI, USA). The resulting construct with CRE-PTAL-driving GFP was used to establish 293 GFP reporter cells by targeting insertion into Flp-In-293 cells according to the supplier's instructions (Invitrogen). The cells were grown in a medium containing 5 μg/ml blasticidin and 100 μg/ml hygromycin.
On day 1, CRE-GFP 293 cells were seeded into 48-well plates (5 × 10^4/well). After 24 h, cells were treated with Ca^2+ ionophore (2 μM) (Sigma-Aldrich) for 0–24 h. Cell viability was measured using 3,(4,5-dimethylthiazol-2-yl)-2,5-diphenyltetrazolium bromide (MTT) assay (Sigma-Aldrich). The absorbance of the insoluble purple formazan dye was quantified at 570 nm on a μQuant microplate spectrophotometer (Bio-Tek). In addition, the cells were treated with the Ca^2+ ionophore A23187 (0.5–10 μM) (Sigma-Aldrich) for 5 h, followed by analysis of GFP fluorescence by flow cytometry (Becton–Dickinson, Franklin Lakes, NJ, USA) with excitation/emission wavelengths at 488/507 nm. To monitor CREB activation, cells were treated with forskolin or coumarin-chalcone derivatives (5–10 μM) in the presence or absence of Ca^2+ ionophore (2 μM) for 5 h, and GFP fluorescence was analysed.
as §1

[5] = tested on: ∆K280 tauRD-DsRed SH-SY5Y cells; experiment: Western blot in ΔK280 tauRD-DsRed SH-SY5Y cells; conditions: inhibitor 10 μM on day 6, LM-021 10 μM
Experimental: as §1, §2

Aβ-GFP SH-SY5Y cells [6] = experiment: High content analysis of neurite outgrowth in Aβ-GFP cells; conditions: inhibitor 10 μM on day 6, LM-021 5 μM
Experimental: as §3, §1

`CN([C@@H](Cc1ccc(OS(=O)(=O)c2cccc3cnccc23)cc1)C(=O)N1CCN(c2ccccc2)CC1)S(=O)(=O)c1cccc2cnccc12` [KN-62] was tested, and the “Effect of kinase inhibitor on LM-021-upregulated kinase phosphorylation” value (Aβ-GFP SH-SY5Y cells [1]) was “mitigated the upregulation of p-CaMKII; also recorded: normalized p-ERK”, the “Effect of kinase inhibitor on LM-021 increase in p-CREB, pro-BDNF, m-BDNF, and BCL2” value (Aβ-GFP SH-SY5Y cells [1]) was “attenuated the increase” and the “Effect of kinase inhibitor on LM-021-ameliorated neurite length and branch length” value [2] was “reversed these effects”. The “Effect of kinase inhibitor on increased p-CREB and GFP protein levels” value (CRE-GFP 293 cells [3]) was “significantly reduced”, the “Effect of kinase inhibitor on LM-021-activated GFP levels” value (CRE-GFP 293 cells [4]) was “attenuated the GFP levels” and the “Effect of kinase inhibitor on LM-021-upregulated kinase phosphorylation” value [5] was “diminished the increase of p-CaMKII”. For the same molecule, the “Effect of kinase inhibitor on LM-021 upregulation of p-CREB, pro-BDNF, m-BDNF, and BCL2” value [5] was “attenuated the upregulation” and the “Effect of kinase inhibitor on LM-021-improved neurite length, processes, and branches” value (Aβ-GFP SH-SY5Y cells [6]) was “counteracted these improvements”.

With `N#CC(=C(/N)Sc1ccccc1N)/C(C#N)=C(/N)Sc1ccccc1N` [U0126] the “Effect of kinase inhibitor on LM-021-upregulated kinase phosphorylation” value (Aβ-GFP SH-SY5Y cells [1]) was “normalized p-ERK”, the “Effect of kinase inhibitor on LM-021 increase in p-CREB, pro-BDNF, m-BDNF, and BCL2” value (Aβ-GFP SH-SY5Y cells [1]) was “attenuated the increase” and the “Effect of kinase inhibitor on LM-021-ameliorated neurite length and branch length” value [2] was “reversed these effects”. For the same molecule, the “Effect of kinase inhibitor on increased p-CREB and GFP protein levels” value (CRE-GFP 293 cells [3]) was “significantly reduced”, the “Effect of kinase inhibitor on LM-021-activated GFP levels” value (CRE-GFP 293 cells [4]) was “attenuated the GFP levels” and the “Effect of kinase inhibitor on LM-021-upregulated kinase phosphorylation” value [5] was “attenuated the rescue of p-ERK”. The “Effect of kinase inhibitor on LM-021 upregulation of p-CREB, pro-BDNF, m-BDNF, and BCL2” value [5] was “attenuated the upregulation” and the “Effect of kinase inhibitor on LM-021-improved neurite length, processes, and branches” value (Aβ-GFP SH-SY5Y cells [6]) was “counteracted these improvements”.
